Key:
[1] = target: D1 protein Phe211->Ile Met214->Gly (Chlamydomonas reinhardtii, UniProt P07753, F211I/M214G); conditions: cited from earlier work
[2] = target: D1 protein Ala250→Ser Phe255→IIe (Chlamydomonas reinhardtii, UniProt P07753, A250S/F255I); conditions: cited from earlier work
D1 protein A1a251→Gly = D1 protein A1a251→Gly (Chlamydomonas reinhardtii, UniProt P07753, A251G); conditions: cited from earlier work
D1 protein Phe255->Tyr [3] = target: D1 protein Phe255->Tyr (Synechococcus elongatus, UniProt P04996, F255Y); conditions: Synachococcus PCC7942, code TyrS; cited from earlier work
D1 protein Phe255->Tyr [4] = target: D1 protein Phe255->Tyr (Chlamydomonas reinhardtii, UniProt P07753, F255Y); conditions: code Ar207+; cited from earlier work
D1 protein Ala250->Arg = D1 protein Ala250->Arg (Chlamydomonas reinhardtii, UniProt P07753, A250R); conditions: cited from earlier work
D1 protein Ala250->Asn = D1 protein Ala250->Asn (Chlamydomonas reinhardtii, UniProt P07753, A250N); conditions: cited from earlier work
D1 protein A1a250->Tyr = D1 protein A1a250->Tyr (Chlamydomonas reinhardtii, UniProt P07753, A250Y); conditions: cited from earlier work
[5] = target: D1 protein Phe211→Gly Met214→Gln (Chlamydomonas reinhardtii, UniProt P07753, F211G/M214Q); conditions: cited from earlier work
D1 protein Ser264->Thr = conditions: Euglena, code MSI; cited from earlier work
PS II = PS II treated with CdCl2, refrigeration at 5°C, flow 0,2-2,0 ml/m
From the text: To further increase the stability of the biomediator the usefulness of a system for the refrigeration of the solution containing herbicide forwarded into the measuring cell experimentally was observed.

[6] = target: D1 protein Ser264→Ala Asn266→Thr (Chlamydomonas reinhardtii, UniProt P07753, N266T/S264A); conditions: cited from earlier work
[7] = target: D1 protein Leu275->Phe (MZ4) (Chlamydomonas reinhardtii, UniProt P07753, L275F); conditions: code MZ4; cited from earlier work
Tyr222->Phe = conditions: code T4; cited from earlier work
D1 protein Ser264->Ala [8] = target: D1 protein Ser264->Ala (Synechococcus elongatus, UniProt P04996, S264A); conditions: Synechococcus sp. PCC7942, code Dil; cited from earlier work
D1 protein Arg257->Val = D1 protein Arg257->Val (Synechocystis sp., UniProt P16033, R257V); conditions: cited from earlier work
[9] = target: D1 protein I1e259->Ser Ser264->Ala Asn266->Thr (Chlamydomonas reinhardtii, UniProt P07753, I259S/N266T/S264A); conditions: cited from earlier work
D1 protein Ala250->Asp = D1 protein Ala250->Asp (Chlamydomonas reinhardtii, UniProt P07753, A250D); conditions: cited from earlier work
D1 protein Ser264->Ala [10] = target: D1 protein Ser264->Ala (Chlamydomonas reinhardtii, UniProt P07753, S264A); conditions: codes MZ1 MZ3 MZ5; cited from earlier work
[11] = target: D1 protein Phe255->Tyr Ser264->Ala (Synechococcus elongatus, UniProt P04996, F255Y/S264A); conditions: code D5; cited from earlier work
D1 protein Val219->Ile = D1 protein Val219->Ile (Chlamydomonas reinhardtii, UniProt P07753, V219I); conditions: code Dr2; cited from earlier work

## CSc1nnc(C(C)(C)C)c(=O)n1N [Metribuzin]
[1]
  Supersensitivity R/S: 0,5
[2]
  Supersensitivity R/S: 0,5
D1 protein A1a251→Gly
  Supersensitivity R/S: Metribuzin 0,6
D1 protein Phe255->Tyr [3]
  Supersensitivity R/S: Metribuzin 0,8
D1 protein Phe255->Tyr [4]
  Supersensitivity R/S: Metribuzin 0,6
D1 protein Ala250->Arg
  Supersensitivity R/S: Metribuzin 0,5
D1 protein Ala250->Asn
  Supersensitivity R/S: Metribuzin 0,8

## N#Cc1cc(I)c(O)c(I)c1 [loxynil]
[2]
  Supersensitivity R/S: loxynil 0,2
D1 protein A1a250->Tyr
  Supersensitivity R/S: loxynil 0,8
[5]
  Supersensitivity R/S: loxynil 0,8
D1 protein Ser264->Thr
  Supersensitivity R/S: loxynil 0,2
PS II
  sensitivity (concentration): one order of magnitude higher
[6]
  Supersensitivity R/S: loxynil 0,8
[7]
  Supersensitivity R/S: locynil 0,2
Tyr222->Phe
  Supersensitivity R/S: Iloxynil <0,01
D1 protein Ser264->Ala [8]
  Supersensitivity R/S: loxynil 0,4
D1 protein Arg257->Val
  Supersensitivity R/S: loxynil 0,8
[9]
  Supersensitivity R/S: loxynil 0,13
D1 protein Ala250->Asp
  Supersensitivity R/S: loxynil 0,2
D1 protein Ser264->Ala [10]
  Supersensitivity R/S: loxynil 0,5
D1 protein Ala250->Arg
  Supersensitivity R/S: loxynil 0,5
[11]
  Supersensitivity R/S: loxynil 0,5

## O=c1[nH]c2c(c(=O)n1C1CCCCC1)CCC2 [Lenacil]
D1 protein Val219->Ile
  Supersensitivity R/S: Lenacil 0,8

Source: patent EP1134585B1, “Biosensor and method for the monitoring of herbicides” (CONSIGLIO NAZIONALE DELLE RICERCHE, priority 2000, dated 2001)
